Where a chain is given by its changes, count along the chain named. Non-standard residues stand in square brackets, D forms with d. Residues, ends and D or L forms follow the SMILES beside them. Nle = CCCC[C@H](N)C(=O)O; βAla = NCCC(=O)O
What was measured:
Rat BRS-3/E3 (RB3-E3) = molecular target: T1, Rat BRS-3/E3 (RB3-E3) (Rattus norvegicus, UniProt Q8K418, A302V/D306A/E299Q/E303D/P308H/S300T/V307M/V310I/V311F/Y298S); assay: Calcium mobilization assay (FLIPR), chimeric receptor; type: cell-based, rat/human
T1 construct: expressed in transfected cells; host or cells: 293EBNA cells, pE3 expression vector
T1 sequence (Q8K418 1-399 Y298S/E299Q/S300T/A302V/E303D/D306A/V307M/P308H/V310I/V311F): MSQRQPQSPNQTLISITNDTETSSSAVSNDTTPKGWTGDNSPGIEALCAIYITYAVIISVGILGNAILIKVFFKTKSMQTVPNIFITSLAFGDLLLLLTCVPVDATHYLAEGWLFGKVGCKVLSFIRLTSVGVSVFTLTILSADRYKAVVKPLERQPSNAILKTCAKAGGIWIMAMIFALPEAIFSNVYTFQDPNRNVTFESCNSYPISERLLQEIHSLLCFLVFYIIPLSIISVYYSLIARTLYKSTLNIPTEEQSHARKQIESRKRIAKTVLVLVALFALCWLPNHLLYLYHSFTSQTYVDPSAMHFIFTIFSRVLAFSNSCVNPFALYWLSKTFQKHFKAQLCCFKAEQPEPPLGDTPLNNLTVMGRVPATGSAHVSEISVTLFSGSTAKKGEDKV
Description: (§1) Chimeric rat/human BRS-3 genes and substitution mutant rat BRS-3 genes were constructed by using PCR mutagenesis techniques (Fong, T. in Structure-function analysis of G protein coupled receptors, J, Wess, ed, Wiley-Liss, pp. 1-20, (1999)). All the mutant and wild type BRS-3 genes were cloned into pE3 expression vector which contains CMV early promoter, hygromycin-resistance gene and OriP segment from Epstein-Bar virus.
(§2) The functional activity of rat BRS-3 was also studied by measuring the agonist-induced calcium mobilization response using a Fluorescence Imaging Plate Reader (Molecular Devices, Sunnyvale, Calif.). Transfected 293EBNA cells were plated onto poly-D-lysine coated 96-well plates with black wall and clear bottom (Becton Dickinson, Franklin Lakes, N.J.). After 16-48 hr culture, the cells were loaded with 4 uM Fluo-3-AM fluorescent calcium-indicator dye (Molecular Probes, Eugene, OR) in assay buffer (Hank's balanced salts solution, 10 mM HEPES, pH7.4, 0.1% bovine serum albumin, 2.5 mM probenecid).
(§3) The changes in intracellular calcium concentration, as indicated by Fluo-3 fluorescence, were immediately measured by FLIPR. Maximal changes in fluorescence over base line were used to determine agonist response. […]
(§4) The EC50 values were mean±S.E. calculated from dose-response curves of 3-5 repeated experiments using FLIPR assays.

Rat BRS-3/E2 (RB3-E2) = molecular target: T2, Rat BRS-3/E2 (RB3-E2) (Rattus norvegicus, UniProt Q8K418, E210K/I208V/N204T/Q192R/R196K/R211K/V198M); assay: as above; type: cell-based, rat/human
T2 construct: expressed in transfected cells; host or cells: 293EBNA cells, pE3 expression vector
T2 sequence (Q8K418 1-399 Q192R/R196K/V198M/N204T/I208V/E210K/R211K): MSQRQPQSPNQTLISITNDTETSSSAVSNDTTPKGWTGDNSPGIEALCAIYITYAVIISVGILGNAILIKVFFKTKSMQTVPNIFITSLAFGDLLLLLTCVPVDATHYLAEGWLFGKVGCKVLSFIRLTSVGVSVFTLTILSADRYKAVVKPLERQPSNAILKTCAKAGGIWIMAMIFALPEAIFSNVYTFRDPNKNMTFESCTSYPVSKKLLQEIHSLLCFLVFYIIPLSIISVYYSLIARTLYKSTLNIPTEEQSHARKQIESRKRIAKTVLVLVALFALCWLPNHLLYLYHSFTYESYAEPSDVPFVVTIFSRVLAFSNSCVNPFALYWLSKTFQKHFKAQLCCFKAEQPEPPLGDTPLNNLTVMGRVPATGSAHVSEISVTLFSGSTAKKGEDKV
Description: as §1, §2, §3, §4

rat BRS-3 = molecular target: T3, rat BRS-3 (Rattus norvegicus, UniProt Q8K418); assay: Phosphatidylinositol hydrolysis functional assay; type: cell-based
T3 construct: utilized to PCR amplify full-length rat BRS-3 cDNA; expressed in transfected cells; host or cells: 293EBNA cells, pE3 expression vector
T3 sequence (Q8K418 1-399): T2 sequence (Q8K418 1-399 Q192R/R196K/V198M/N204T/I208V/E210K/R211K) with R192Q, K196R, M198V, T204N, V208I, K210E, K211R
Protocol: Wild type and mutant BRS-3 constructs were transfected by using lipofectamine reagents (Life Technologies, Rockville, Md.) into 293EBNA cells (Invitrogen, Carlsbad, Calif.) which support episomal replication of plasmid containing Epstein Bar virus OriP segment. Stable cell lines were obtained by selection with 250 ug/ml hygromycin. The cells were maintained as monolayers in Dulbecco's modified Eagle's medium (Life Technologies, Rockville, Md.) supplemented with 10% fetal bovine serum and incubated at 37° C. in a humidified 5% CO2 incubator.
The functional properties of rat BRS-3 were characterized in transfected 293EBNA cells. The transfected 293EBNA cells were plated onto poly-D-lysine coated 12-well plates and incubated in the medium containing 2 uCi/ml [^3H]myo-inositol. The cells were labeled for 48 hrs, and subsequently incubated for 30 minutes in Hank's balanced salt solution containing 10 mM HEPES, 0.1% BSA and 10 mM LiCl.
Since a natural agonist of BRS-3 has not been found, members of the bombesin-like peptide family, including GRP, NMB, bombesin and dYB, were used to stimulate the transfected cells described above, in the same buffer, for 1 hr at 37° C. The reaction was stopped by removal of medium and addition of 10 mM formic acid. The inositol monophosphate fraction was then isolated by anion chromatography as described (Berridge et al. Biochem. J. 212: 473-482 (1983), which is hereby incorporated by reference).

SMILES | EC50 (Rat BRS-3/E3 (RB3-E3)) | EC50 (Rat BRS-3/E2 (RB3-E2)) | increase in PI hydrolysis (rat BRS-3) | stimulation of phosphatidylinositol (PI) hydrolysis (inositol monophosphate production) (rat BRS-3)
CCCC[C@H](NC(=O)[C@H](Cc1ccccc1)NC(=O)[C@H](Cc1cnc[nH]1)NC(=O)CCNC(=O)[C@@H](NC(=O)[C@H](C)NC(=O)[C@H](Cc1c[nH]c2ccccc12)NC(=O)[C@H](CCC(N)=O)NC(=O)[C@H](N)Cc1ccc(O)cc1)C(C)C)C(N)=O [dYB, [D-Tyr6-betaAla11-Phe13-Nle14] bombesin (6-14)] (H-[dY]QWAV[βAla]HF[Nle]-NH2) | 2.8 ± 0.6 nM | 990 ± 140 nM |  | 
CCCC[C@H](NC(=O)[C@H](Cc1ccccc1)NC(=O)[C@H](Cc1c[nH]cn1)NC(=O)CCNC(=O)[C@@H](NC(=O)[C@H](C)NC(=O)[C@H](Cc1c[nH]c2ccccc12)NC(=O)[C@H](CCC(N)=O)NC(=O)[C@H](N)Cc1ccc(O)cc1)C(C)C)C(N)=O [dYB, [D-Tyr6-betaAla11-Phe13-Nle14] bombesin (6-14)] (H-[dY]QWAV[βAla]HF[Nle]-NH2) |  |  | 9 fold | significant increase

Source: patent publication US20050222402A1, “Dna encoding rat bombesin receptor subtype-3 (brs-3) and uses thereof” (priority 2001, published 2005)
